Experimental data taken from patent US20240182526A1, “COMPOSITIONS AND METHODS FOR MODULTING INFLAMMATORY AND DEGENERATIVE DISORDER” (University of Southern California, priority 2021, published 2024).
“Also recorded” adds a separate entry of the source.

Assays:
c-MYC = assay: Western blot of c-MYC in pig articular chondrocytes; type: cell-based
[1] = system: mouse skin excisional wound; assay: Wound-induced hair neogenesis (WIHN) assay, skin excisional wound; type: in vivo
Description: (§1) Single-cell sequencing using 10× Genomics. Single cell samples were prepared using Next GEM Single Cell 5′ v2 (dual index) and Chip Kit (10× Genomics) according to the manufacturer's protocol. Briefly samples were FACS sorted using DAPI to select live cells followed by resuspension in 0.04% BSA-PBS. Nearly 1200 cells/μl were added to each well of the chip with a target cell recovery estimate of 10000 cells. Thereafter Gel bead-in Emulsions (GEMs) were generated using GemCode Single-Cell Instrument. GEMs were reverse transcribed, droplets were broken and single stranded cDNA was isolated. cDNAs were cleaned up with DynaBeads and amplified. Finally, cDNAs were ligated with adapters, post-ligation products were amplified, cleaned-up with SPRIselect and purified libraries were sequenced on Novaseq.
Wound-induced hair neogenesis assay. The WHIN assay was previously described. Briefly, a 1.5×1.5 cm square full thickness wound was excised on the posterior dorsum of 6-week-oldf mice, and observed for hair neogenesis and wound histology. Mice were anesthetized using isofluorane, full thickness skin was excised, and analgesic Buprenorphine SR (0.5 mg/kg) was given by intraperitoneal injection (IP) at the beginning of the procedure. Additional DietGel Boost (ClearH2O) was placed on the bottom of the cage during the first week post-operation. For R805-treatment, R805 (10 μM or 20 μM) was applied topically to the wound of WT mice.
Alkaline phosphatase (ALP) stain. To detect newly forming dermal papillae, alkaline phosphatase staining was performed as previously reported. Briefly, full thickness wounds were excised and epidermis separated from the dermis using 20 mM EDTA. The dermis was fixed in acetone overnight at 4° C., and washed in PBS several times. The dermis was pre-incubated in ALP buffer (0.1 M Tris-HCl, 0.1 M NaCl, 5 mM MgCl2 and 0.1% Tween-20) for 30 min, incubated with BCIP/NBT Color Development Substrate (Promega, Madison, WI, USA) in ALP buffer at 37° C. until color development. The reaction was stopped by washing with pH 8.0 Tris-EDTA and the tissue stored in PBS with sodium azide. 5 wounds were calculated for each strain of mice.
Hair fiber length quantification. To quantify regenerated hair fiber length, hair fibers from respective wounds were plucked, aligned and photographed next to a ruler under the dissecting microscope. The length of the hair fibers was measured and analyzed using ImageJ. 3-4 hairs were randomly plucked from each wound and analyzed.

canine OA model = assay: Canine osteoarthritis model (medial meniscal release); type: in vivo, dog; conditions: for histological (OARSI) scores of joint sections, matrix catabolism: intra-articular injections at post-operative weeks 4 and 11
Description: as §1
10× Sequencing data analysis. Raw sequencing reads were processed using Partek Flow Analysis Software (build version 10.0.21.0210). Briefly, raw reads were checked for their quality, trimmed and reads with an average base quality score per position>30 were considered for alignment. Trimmed reads were aligned to the dog genome version canFam3-Ensembl_v102 using STAR-2.6.1d with default parameters. Reads with alignment percentage >75% were deduplicated based on their unique molecular identifiers (UMIs). Reads mapping to the same chromosomal location with duplicate UMIs were removed. Thereafter ‘Knee’ plot was constructed using the cumulative fraction of reads/UMIs for all barcodes. Barcodes […] the cut-off defined by the location of the knee were assigned as true cell barcodes and quantified. Further noise filtration was done by removing cells having >5% mitochondrial counts and total read counts >24,000. Genes not expressed in any cell were also removed as an additional clean-up step. Cleaned-up reads were normalized using counts per million (CPM) method followed by log-transformation generating count matrices for each sample. Samples were batch-corrected on the basis of expressed genes and mitochondrial reads percent. Count matrices were used to visualize and explore the samples in further details by generating tSNE plots, a non-linear dimensional reduction technique. This algorithm learns the underlying manifold of the data and places similar cells together in a low-dimensional space. Gene ontology enrichment analysis for the differentially expressed genes was performed using DAVID Gene Functional Classification Tool ([http://]david.abcc.ncifcrf.gov; version 6.8). Dot plots were generated in R (v4.0.3) using ggplot2(v3.3.3).
Immunohistochemistry. Histological staining for was performed on wild type (WT) mice, F814 mice and all mice that underwent destabilization of the medial meniscus (DMM). Six weeks after surgery, mice were sacrificed and joints were fixed in 10% formalin, decalcified in 10% EDTA and embedded in paraffin. For rat model, 6 weeks after partial medial meniscectomy (PMM), rats were sacrificed and joints were fixed in 10% formalin, decalcified in 10% EDTA and embedded in paraffin. A total of three 8 μm thick sections were made at a 200 μm interval by coronal sectioning. For canine model, 4 and 16 weeks after medial meniscal release (MMR), dogs were sacrificed and joints were fixed in 10% formalin, decalcified in 10% EDTA and embedded in paraffin. No animals were excluded from analysis. A microtome (Leica) was used to cut 5-μm sections for joints. H&E staining was performed to assess morphology. Safranin O/Fast Green staining, immunohistochemistry for proteolytic enzymes and Osteoarthritis Research Society International (OARSI) scoring was performed as described (41, 42). For OARSI scoring, observers performing the analysis were blinded as whether the slides were from treated or control animals. The stained samples were visually observed using LSCM (Zeiss LSM710, Carl Zeiss, Germany).
Canine osteoarthritis model. […]

[2] = topical on WT mouse wound, PWD 21

## Cc1ccc(-c2csc(NC(=O)c3ccccn3)n2)cc1 [Peptide R805]
c-MYC
  protein levels of c-MYC (MYC signaling): does not activate MYC signaling
[1]; PWD 14
  scRNA-seq macrophage clusters of skin wounds: higher expression of genes characteristic of pro-regenerative/anti-inflammatory macrophages
[1]; topical on WT mouse wound
  hair fiber length and number of hair follicles: increase of hair fiber length and number of hair follicles
[1]; [2]
  hair follicle neogenesis and dermal regeneration: significant hair follicle neogenesis and dermal regeneration; also recorded: enhanced wound-induced hair neogenesis
  wound histology (thickness, contraction, collagen deposition): thicker, less contracted and shows less collagen deposition
Canine OA model; 0.1 μg dose group (as in saline group)
  histological abnormalities of cartilage: focal partial- and full thickness cartilage erosions
Canine OA model; 10 ug and 1 ug doses
  cortical outline of the medial tibial plateau: almost no change in the cortical outline
Canine OA model; 10 and 1 μg groups
  bone mineral density (sclerosis) in medial compartment of the operated stifle, microCT: consistent absence of sclerosis
Canine OA model; R805-treated vs control dogs
  scRNA-seq of synoviocytes: joint inflammatory milieu: biases the joint environment away from a chronic inflammatory identity following injury; also recorded: promotes an anti-inflammatory, anti-fibrotic milieu in an injured joint
Canine OA model; canine OA model
  knee joint shape change from baseline (serial CT): clearly controlled; also recorded: dose-dependent reduction in ectopic bone formation
  pain (Colorado Pain Scores): minimal pain
  subchondral sclerosis / BMD in the contralateral, non-operated knee: did not develop subchondral sclerosis in the contralateral knee; also recorded: increased with decreasing dose of R805
Canine OA model; canine OA model, listed as CX-011
  pain (Colorado Pain Scores): profound effect on alleviating pain
Canine OA model; high and middle dose groups
  synovial membrane inflammation: mild intimal hypertrophy with occasional subintimal mononuclear cell infiltration; also recorded: reduced by mid and high doses of R805
Canine OA model; high dose group
  lameness scores: minimal pain (FIG. 5E) and lameness
Canine OA model
  histological (OARSI) scores of joint sections, matrix catabolism: dramatically reduces the appearance of OA in rat and canine models; also recorded: incremental improvement in the histological scores as the R805 dose increased
Canine OA model; listed as CX-011
  histological (OARSI) scores of joint sections, matrix catabolism: profound effect on alleviating pain and matrix catabolism
Canine OA model; low dose (as in saline treated dogs)
  synovial membrane inflammation: profound increase in subintimal vasculature, new connective tissue and cellular infiltrate
